Ki data for 3 molecules are collected here from patent US6291463A, “1-(Benzothiazol-2-yl)-4-(1-phenylmethyl) piperazines: dopamine receptor subtype specific ligands” (Neurogen Corporation, priority 1999, dated 2001).

Experiment [1] concerns the target D2 receptors (Chlorocebus aethiops, UniProt P52702). Put plainly: D2 receptor binding (displacement of 3H-YM 09151-2). Set-up: species or system African Green monkey. Particulars: COS cells with recombinant D2 receptors; 0.5 nM 3H-YM 09151-2; Table 2. How it is done:
(§1) Assay for D2 and D4 Receptor Binding Activity
(§2) Pellets of COS cells containing recombinantly produced D2 or D4 receptors from African Green monkey were used for the assays. The sample is homogenized in 100 volumes (w/vol) of 0.05 M Tris HCl buffer at 4° C. and pH 7.4. The sample is then centrifuged at 30,000×g and resuspended and rehomogenized. The sample is then centrifuged as described and the final tissue sample is frozen until use. The tissue is resuspended 1:20 (wt/vol) in 0.05 M Tris HCl buffer containing 100 mM NaCl.
(§3) Incubations are carried out at […] and contain 0.4 ml of tissue sample, 0.5 nM ^3 H-YM 09151-2 (Nemonapride, cis-5-Chloro-2-methoxy-4-(methylamino)-N-(2-methyl-2-(phenylmethyl)-3-pyrroli-dinyl)benzamide) and the compound of interest in a total incubation of 1.0 ml. Nonspecific binding is defined as that binding found in the presence of 1 mM spiperone; without further additions, nonspecific binding is less than 20% of total binding.
On the technique in general: Loss of bound radioactivity is the signal in a displacement assay; it reports binding, not function.

For experiment [2], the target named is D4 receptors. The experiment is described as follows: D4 receptor binding (displacement of 3H-YM 09151-2). Also on record: species or system African Green monkey. To be noted: COS cells with recombinant D4 receptors; 0.5 nM 3H-YM 09151-2; Table 2. How it is done: as §1, §2, §3

Where a name gives a salt, the structure may show the parent alone. A value given as a limit tells only on which side of the number the result lay.

Chain of D2 receptors (P52702 whole entry): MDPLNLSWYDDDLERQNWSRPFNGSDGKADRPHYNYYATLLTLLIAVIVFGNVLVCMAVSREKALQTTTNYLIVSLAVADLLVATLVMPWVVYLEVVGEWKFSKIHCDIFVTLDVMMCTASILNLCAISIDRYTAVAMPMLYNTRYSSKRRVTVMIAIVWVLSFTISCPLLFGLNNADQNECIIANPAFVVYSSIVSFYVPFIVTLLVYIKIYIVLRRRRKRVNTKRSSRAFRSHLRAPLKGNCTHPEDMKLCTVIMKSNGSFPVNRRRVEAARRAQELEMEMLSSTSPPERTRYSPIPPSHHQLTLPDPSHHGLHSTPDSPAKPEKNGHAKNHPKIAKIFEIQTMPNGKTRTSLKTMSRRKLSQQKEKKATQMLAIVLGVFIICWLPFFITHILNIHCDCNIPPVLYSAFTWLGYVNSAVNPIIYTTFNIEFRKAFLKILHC

As a reminder, the Ki is a dissociation constant, usually derived from enzyme kinetics or from competition with a known ligand. As for `Clc1ccc(CN2CCN(c3nc4ccccc4s3)CC2)cc1` [Compound 1A, 1-(Benzothiazol-2-yl)-4-(1-[4-chlorophenyl]methyl)piperazine], the values for the inhibitory constant (Ki) in experiment [1] and in experiment [2] were above 4000 nM and 14 nM, respectively.
Taken in the same sequence, the figures for `Cc1ccc(CN2CCN(c3nc4ccccc4s3)CC2)cc1` [Compound 2A, 1-(benzothiazol-2-yl)-4-(1-[4-methylphenyl]methyl)piperazine oxalate] were 3510 nM and 25 nM.
In the case of `c1ccc2cc(CN3CCN(c4nc5ccccc5s4)CC3)ccc2c1` [Compound 4A, 1-(benzothiazol-2-yl)-4-(1-[2-naphthyl]methyl)piperazine oxalate], the inhibitory constant (Ki) in experiment [1] was found to be 3510 nM; in experiment [2] it was 76 nM.
